Common to all, as to type: in vivo
The test system of experiment [1] is Phytophthora infestans (the causal agent of tomato late blight). The experiment in a line: whole plant or invertebrate.
For experiment [2], the system named is Plasmopara vilicola (the causal agent of grape downy mildew). Briefly: Test A: grape downy mildew, test suspension sprayed on grape seedlings after inoculation, visual disease rating. An excerpt: General protocol for preparing test suspensions for Test A-C: The test compounds were first dissolved in acetone in an amount equal to 3% of the final volume and then suspended at the desired concentration (in ppm) in acetone and purified water (50/50 mix by volume) containing 250 ppm of the surfactant Trem® 014 (polyhydric alcohol esters). The resulting test suspensions were then used in Tests A-C. Spraying a 200 ppm test suspension to the point of run-off on the test plants was equivalent to a rate of 500 g/ha.
Grape seedlings were inoculated with a spore suspension of Plasmopara vilicola (the causal agent of grape downy mildew) and incubated in a saturated atmosphere at 20° C. for 24 h. After a short drying period, the test suspension was sprayed to the point of run-off on the grape seedlings, which were then moved to a growth chamber at 20° C. for 5 days, after which time the grape seedling were placed back into a saturated atmosphere at 20° C. for 24 h. Upon removal, visual disease ratings were made.
Results for Tests A-C are given in Table A. In the table, a rating of 100 indicates 100% disease control and a rating of 0 indicates no disease control (relative to the controls). A dash (-) indicates no test results.

Experiment [3] deals with Phytophthora infestans (the causal agent of tomato late blight). The experiment in a line: whole plant or invertebrate. The source holds these as a separate data set.
[4] abbreviates: compounds without asterisk (application rate not given), 100 = 100% disease control, 0 = no control relative to the controls.

These results are taken from US9920030B2 (priority 2006, dated 2018).

Read-outs that look alike come from different tables or passages of the source.

For the molecule `Cc1cc(C(F)(F)F)nn1CC(=O)N1CCC(c2nc(C3=NOC4(CCc5ccccc54)C3)cs2)CC1` (stereo not drawn) [Compound 44, 1-[4-[4-(2,3-dihydrospiro[1H-indene-1,5′(4′H)-isoxazol]-3′-yl)-2-thiazolyl]-1-piperidinyl]-2-[5-methyl-3-(trifluoromethyl)-1H-pyrazol-1-yl]ethanone], the pest or weed control at 40 ppm in experiment [1] (Phytophthora infestans, 96 h, read-out: Percent Disease Control, Test C) worked out at 99%; in experiment [2] (Plasmopara, 144 h, * tested at 40 ppm, read-out: Percent Disease Control, Test A) it was 100%; in experiment [3] (Phytophthora infestans, 144 h, read-out: Percent Disease Control, Test B) it was 100%.

With `Cc1cc(C(F)(F)F)nn1CC(=O)N1CCC(c2nc(C3=NOC4C(=O)N(C)C(=O)C34)cs2)CC1` (stereo not drawn) [Compound 45], the “Percent Disease Control, Test C” value in experiment [1] (setting [4]) worked out at 0%. Further, the “Percent Disease Control, Test A” value in experiment [2] (setting [4]) is reported as 30%. Besides, the “Percent Disease Control, Test B” value in experiment [3] (setting [4]) worked out at 26%.

With `Cc1cc(C(F)(F)F)nn1CC(=O)N1CCC(c2nc(C3=NCC(c4ccccc4)O3)cs2)CC1` (stereo not drawn) [Compound 47], the “Percent Disease Control, Test C” value in experiment [1] (setting [4]) is 47%. Also, in experiment [2] (setting [4]), the “Percent Disease Control, Test A” value is 0%. In experiment [3] (setting [4]), the “Percent Disease Control, Test B” value is 85%.

Take `Cc1cc(C(F)(F)F)nn1CC(=O)N1CCC(c2nc(C3=NCCC(c4ccccc4)O3)cs2)CC1` (stereo not drawn) [Compound 48]: the “Percent Disease Control, Test C” value in experiment [1] (setting [4]) is reported as 0%. In addition, the “Percent Disease Control, Test A” value in experiment [2] (setting [4]) amounted to 0%. Further, the “Percent Disease Control, Test B” value in experiment [3] (setting [4]) was 85%.

Turning to `Cc1cc(C(F)(F)F)nn1CC(=O)N1CCC(c2nc(C3=NC(c4ccccc4)CO3)cs2)CC1` (stereo not drawn) [Compound 49], the “Percent Disease Control, Test C” value in experiment [1] (setting [4]) is given as 96%. Also, in experiment [2] (setting [4]), the “Percent Disease Control, Test A” value is given as 0%. In addition, the “Percent Disease Control, Test B” value in experiment [3] (setting [4]) is 100%.

With `Cc1cc(C(F)(F)F)nn1CC(=O)N1CCC(c2nc(C3=NCC(c4ccccc4)O3)cs2)CC1` (stereo not drawn) [Compound 50], the “Percent Disease Control, Test C” value in experiment [1] (setting [4]) stood at 99%. The “Percent Disease Control, Test A” value in experiment [2] (setting [4]) is listed as 0%. Also, the “Percent Disease Control, Test B” value in experiment [3] (setting [4]) is reported as 100%.

Take `Cc1cc(C(F)(F)F)nn1CC(=O)N1CCC(c2nc(C3=NOC4c5ccccc5CC34)cs2)CC1` (stereo not drawn) [Compound 51]: the “Percent Disease Control, Test C” value in experiment [1] (setting [4]) is given as 99%. The “Percent Disease Control, Test A” value in experiment [2] (setting [4]) came to 99%. Further, in experiment [3] (setting [4]), the “Percent Disease Control, Test B” value is 100%.

`Cc1cc(C(F)(F)F)nn1CC(=O)N1CCC(c2nc(-c3nc4ccccc4o3)cs2)CC1` [Compound 52]: in experiment [1] (setting [4]), the “Percent Disease Control, Test C” value is recorded as 67%. Also, in experiment [2] (setting [4]), the “Percent Disease Control, Test A” value is 85%. The “Percent Disease Control, Test B” value in experiment [3] (setting [4]) stood at 100%.

`Cc1cc(C(F)(F)F)nn1CC(=O)N1CCC(c2nc(C3=NCC(c4ccccc4)CO3)cs2)CC1` (stereo not drawn) [Compound 53]: the “Percent Disease Control, Test C” value in experiment [1] (* tested at 40 ppm) turned out to be 26%. For the same molecule, the “Percent Disease Control, Test A” value in experiment [2] (* tested at 40 ppm) stood at 24%. Besides, in experiment [3] (* tested at 40 ppm), the “Percent Disease Control, Test B” value came out at 68%.

On to `Cc1cc(C(F)(F)F)nn1CC(=O)N1CCC(c2nc(C3=NC(c4ccccc4)CCO3)cs2)CC1` (stereo not drawn) [Compound 54], for which the “Percent Disease Control, Test C” value in experiment [1] (setting [4]) is given as 0%. Besides, the “Percent Disease Control, Test A” value in experiment [2] (setting [4]) worked out at 16%. Also, in experiment [3] (setting [4]), the “Percent Disease Control, Test B” value worked out at 73%.

As for `COC(=O)C1CC(c2csc(C3CCN(C(=O)Cn4nc(C(F)(F)F)cc4C)CC3)n2)=NO1` (stereo not drawn) [Compound 55], the “Percent Disease Control, Test C” value in experiment [1] (setting [4]) is on record as 0%. In addition, in experiment [2] (setting [4]), the “Percent Disease Control, Test A” value was determined as 17%. The “Percent Disease Control, Test B” value in experiment [3] (setting [4]) was found to be 26%.

With `Cc1cc(C(F)(F)F)nn1CC(=O)N1CCC(c2nc(C3=NOC(C(C)(C)C)C3)cs2)CC1` (stereo not drawn) [Compound 56], the “Percent Disease Control, Test C” value in experiment [1] (setting [4]) stood at 99%. Moreover, the “Percent Disease Control, Test A” value in experiment [2] (setting [4]) came out at 99%. Moreover, in experiment [3] (setting [4]), the “Percent Disease Control, Test B” value is 100%.

In the case of `Cc1cc(C(F)(F)F)nn1CC(=O)N1CCC(c2nc(C3=NOC(CCBr)C3)cs2)CC1` (stereo not drawn) [Compound 57], the “Percent Disease Control, Test C” value in experiment [1] (setting [4]) is 99%. Besides, in experiment [2] (setting [4]), the “Percent Disease Control, Test A” value came to 99%. Also, the “Percent Disease Control, Test B” value in experiment [3] (setting [4]) is given as 100%.

Take `Cc1cc(C(F)(F)F)nn1CC(=O)N1CCC(c2nc(-c3nc4ccccc4[nH]3)cs2)CC1` [Compound 58]: in experiment [1] (setting [4]), the “Percent Disease Control, Test C” value came out at 0%. For the same molecule, the “Percent Disease Control, Test A” value in experiment [2] (setting [4]) was 0%. In addition, in experiment [3] (setting [4]), the “Percent Disease Control, Test B” value worked out at 99%.

For `Cc1cc(C(F)(F)F)nn1CC(=O)N1CCC(c2nc(-c3cc(-c4ccccc4F)on3)cs2)CC1` [Compound 59], the “Percent Disease Control, Test C” value in experiment [1] (* tested at 40 ppm) is on record as 91%. For the same molecule, the “Percent Disease Control, Test A” value in experiment [2] (* tested at 40 ppm) turned out to be 97%. Moreover, the “Percent Disease Control, Test B” value in experiment [3] (* tested at 40 ppm) is 100%.

For `Cc1cc(C(F)(F)F)nn1CC(=O)N1CCC(c2nc(-c3cc(-c4ccccc4C(F)(F)F)on3)cs2)CC1` [Compound 60], the “Percent Disease Control, Test C” value in experiment [1] (setting [4]) amounted to 94%. Further, the “Percent Disease Control, Test A” value in experiment [2] (setting [4]) amounted to 100%. In addition, the “Percent Disease Control, Test B” value in experiment [3] (setting [4]) was determined as 95%.

For `Cc1cc(C(F)(F)F)nn1CC(=O)N1CCC(c2nc(-c3ccc4ccccc4c3)cs2)CC1` [Compound 61], the “Percent Disease Control, Test C” value in experiment [1] (setting [4]) is 0%. Further, the “Percent Disease Control, Test A” value in experiment [2] (setting [4]) was 80%. Further, the “Percent Disease Control, Test B” value in experiment [3] (setting [4]) turned out to be 77%.

For `Cc1cc(C(F)(F)F)nn1CC(=O)N1CCC(c2nc(-c3ccccc3)cs2)CC1` [Compound 62], in experiment [1] (setting [4]), the “Percent Disease Control, Test C” value is 26%. Besides, in experiment [2] (setting [4]), the “Percent Disease Control, Test A” value is recorded as 73%. For the same molecule, in experiment [3] (setting [4]), the “Percent Disease Control, Test B” value came to 73%.

With `Cc1cc(C(F)(F)F)nn1CC(=O)N1CCC(c2nc(-c3cc(-c4ccc(F)cc4F)on3)cs2)CC1` [Compound 64], the “Percent Disease Control, Test C” value in experiment [1] (setting [4]) stood at 88%. The “Percent Disease Control, Test A” value in experiment [2] (setting [4]) was found to be 90%. In experiment [3] (setting [4]), the “Percent Disease Control, Test B” value is given as 99%.

On to `Cc1cc(C(F)(F)F)nn1CC(=O)N1CCC(c2nc(C3CC(=O)N(c4ccccc4)C3)cs2)CC1` (stereo not drawn) [Compound 65], for which, in experiment [1] (setting [4]), the “Percent Disease Control, Test C” value was 83%. Besides, the “Percent Disease Control, Test A” value in experiment [2] (setting [4]) stood at 46%. For the same molecule, the “Percent Disease Control, Test B” value in experiment [3] (setting [4]) came to 100%.

`Cc1cc(C(F)(F)F)nn1CC(=O)N1CCC(c2nc(C3=NOC(C#N)C3)cs2)CC1` (stereo not drawn) [Compound 66]: the “Percent Disease Control, Test C” value in experiment [1] (setting [4]) is 73%. In experiment [2] (setting [4]), the “Percent Disease Control, Test A” value is recorded as 48%. Further, in experiment [3] (setting [4]), the “Percent Disease Control, Test B” value came out at 63%.

With `Cc1cc(C(F)(F)F)nn1CC(=O)N1CCC(c2nc(C3=NOC4(CCCC4)C3)cs2)CC1` [Compound 67], the “Percent Disease Control, Test C” value in experiment [1] (* tested at 40 ppm) was 99%. For the same molecule, in experiment [2] (* tested at 40 ppm), the “Percent Disease Control, Test A” value turned out to be 100%. For the same molecule, in experiment [3] (* tested at 40 ppm), the “Percent Disease Control, Test B” value came out at 100%.

On to `Cc1cc(C(F)(F)F)nn1CC(=O)N1CCC(c2nc(-c3nc(-c4ccccc4)no3)cs2)CC1` [Compound 68], for which, in experiment [1] (setting [4]), the “Percent Disease Control, Test C” value was 88%. For the same molecule, the “Percent Disease Control, Test A” value in experiment [2] (setting [4]) was 96%. Besides, the “Percent Disease Control, Test B” value in experiment [3] (setting [4]) came out at 95%.

Take `Cc1cc(C(F)(F)F)nn1CC(=O)N1CCC(c2nc(-c3ccc(Oc4ccccc4)cc3)cs2)CC1` [Compound 72]: the “Percent Disease Control, Test C” value in experiment [1] (setting [4]) was found to be 52%. In experiment [2] (setting [4]), the “Percent Disease Control, Test A” value is 72%. Also, in experiment [3] (setting [4]), the “Percent Disease Control, Test B” value was 100%.

In the case of `Cc1cc(C(F)(F)F)nn1CC(=O)N1CCC(c2nc(-c3cccc4ccccc34)cs2)CC1` [Compound 73], in experiment [1] (setting [4]), the “Percent Disease Control, Test C” value worked out at 0%. The “Percent Disease Control, Test A” value in experiment [2] (setting [4]) is 27%. The “Percent Disease Control, Test B” value in experiment [3] (setting [4]) is 40%.

Turning to `Cc1cc(C(F)(F)F)nn1CC(=O)N1CCC(c2nc(-c3cccc(-c4ccccc4)c3)cs2)CC1` [Compound 74], the “Percent Disease Control, Test C” value in experiment [1] (setting [4]) is on record as 0%. Moreover, in experiment [2] (setting [4]), the “Percent Disease Control, Test A” value amounted to 50%. For the same molecule, the “Percent Disease Control, Test B” value in experiment [3] (setting [4]) amounted to 40%.
